Measured values as given in ChEMBL document CHEMBL1201862, “PubChem BioAssay data set” (2004).
The source made the active and inactive calls. Cut-off read from the data, not from the text of the source, for most assays here: actives have a measured EC50 and inactives only a lower limit.

Columns and labels:
[1] = Luminescence Cell-Based Dose Confirmation HTS to Identify Inhibitors of Platelet Dense Granule Release. [Related pubchem assays: 1663 (Primary HTS), 1678 (Summary of Project)]; assay type: functional
[2] = target: Luciferin 4-monooxygenase (Photinus pyralis, UniProt P08659); assay: firefly luciferase enzyme inhibitors, dose response, biochemical, luminescence (AID 1891)
[3] = cytotoxicity toward DRD oncogenic fibroblasts, dose response, cell-based, non-viral oncogenic, luminescence (AID 1934); assay type: functional; settings: Homo sapiens
BJ [4] = assay: cytotoxicity toward BJ-TERT-LT-ST fibroblasts, dose response, cell-based, RAS-independent, luminescence (AID 1935); assay type: functional; settings: Homo sapiens;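 note: BJ fibroblasts immortalized with TERT plus LT and ST oncogenes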
BJ [5] = assay: cells; assay type: functional, cell-based; settings: Homo sapiens
[6] = Luminescence Cell-Based Dose Response HTS to Identify Inhibitors of 5'UTR Stem-Loop Driven Prion Protein mRNA Translation in H4 Neuroglioblastoma Cells. [Related pubchem assays: 1827 (Project Summary), 1813 (Primary HTS)]; assay type: functional
[7] = inhibitors of firefly luciferase expression or activity, dose response, H4 neuroglioma cells, luminescence (AID 1990); assay type: functional, cell-based
BJ [8] = assay: cytotoxicity toward BJ-TERT fibroblasts, dose response, cell-based, RAS-independent, luminescence (AID 1933); assay type: functional; settings: Homo sapiens
[9] = inhibitors of SNCA 5'UTR-driven reporter translation, confirmation, H4 neuroglioma cells, luminescence (AID 1988); assay type: functional, cell-based
H9c2 = assay: cells; assay type: functional, cell-based; settings: Rattus norvegicus, H9c2, Myocardium;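 note: confirmatory concentration-response retest of ultra-high-throughput screening hits for modulation of myocardial damage; cell death induced by hydrogen peroxide oxidative stress; compound pretreatment for 60 min then peroxide exposure for 2 h; potency is for protecting the cells against peroxide damage rather than for killing them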
Streptococcus = assay: Group A Streptococcus viability loss, dose response, counter-screen for streptokinase expression inhibitor project, luminescence, BacTiterGlo (AID 1915); assay type: functional, organism-based;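 note: potency for reduction of bacterial viability or growth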
[10] = test system: Streptococcus sp. 'group A'; assay: growth inhibition of control SK(-) GAS strain, dose response, counter-screen for streptokinase expression inhibitor project, luminescence, kanamycin, BacTiterGlo, confirmation (AID 1900); assay type: functional, organism-based
Streptokinase A = target: T1, Streptokinase A (Streptococcus pyogenes serotype M1, UniProt P10520); assay: S. pyogenes streptokinase expression inhibitors, potency, dose response, plasminogen activation absorbance, OD405 (AID 1914); assay type: functional, Streptococcus pyogenes M1 GAS;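 note: secreted streptokinase activity via plasminogen activation per viability signal from cell pellet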
T1 sequence (P10520 whole entry): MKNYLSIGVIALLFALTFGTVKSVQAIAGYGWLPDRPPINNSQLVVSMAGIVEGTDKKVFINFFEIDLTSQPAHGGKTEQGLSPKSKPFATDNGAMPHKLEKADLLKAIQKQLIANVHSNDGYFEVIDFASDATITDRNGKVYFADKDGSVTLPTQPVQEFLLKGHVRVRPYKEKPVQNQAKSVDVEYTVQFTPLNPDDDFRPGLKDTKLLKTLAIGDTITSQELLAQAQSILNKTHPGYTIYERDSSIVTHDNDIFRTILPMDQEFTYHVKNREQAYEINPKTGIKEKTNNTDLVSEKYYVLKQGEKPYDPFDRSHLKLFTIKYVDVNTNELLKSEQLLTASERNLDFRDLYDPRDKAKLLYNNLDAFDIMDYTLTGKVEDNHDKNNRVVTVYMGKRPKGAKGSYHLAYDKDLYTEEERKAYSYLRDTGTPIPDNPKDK

Protein skinhead-1 = target: T2, Protein skinhead-1 (Caenorhabditis elegans, UniProt P34707); assay type: functional
T2 sequence (P34707 whole entry): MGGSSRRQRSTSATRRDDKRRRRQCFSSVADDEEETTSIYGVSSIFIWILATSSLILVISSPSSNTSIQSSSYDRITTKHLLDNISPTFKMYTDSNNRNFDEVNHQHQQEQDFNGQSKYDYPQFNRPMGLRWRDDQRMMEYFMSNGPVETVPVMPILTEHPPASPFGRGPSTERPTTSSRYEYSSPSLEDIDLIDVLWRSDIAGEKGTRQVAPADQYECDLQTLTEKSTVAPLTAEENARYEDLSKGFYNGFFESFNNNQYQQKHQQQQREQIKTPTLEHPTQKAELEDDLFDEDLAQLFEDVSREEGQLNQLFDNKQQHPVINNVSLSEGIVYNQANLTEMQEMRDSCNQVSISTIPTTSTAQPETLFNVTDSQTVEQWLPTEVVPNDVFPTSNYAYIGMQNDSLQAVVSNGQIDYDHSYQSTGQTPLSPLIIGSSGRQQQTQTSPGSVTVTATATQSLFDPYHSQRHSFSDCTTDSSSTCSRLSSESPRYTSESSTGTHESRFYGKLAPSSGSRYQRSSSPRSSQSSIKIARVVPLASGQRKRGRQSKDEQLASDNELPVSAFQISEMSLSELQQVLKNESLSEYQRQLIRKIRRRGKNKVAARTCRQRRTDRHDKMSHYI

[11] = target: T3, Ubiquitin-conjugating enzyme E2 N (Homo sapiens, UniProt P61088); assay type: functional;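 note: Dose-response confirmation in a TR-FRET assay detecting UBC13-driven polyubiquitin chain formation, inhibition measured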
T3 sequence (P61088 whole entry): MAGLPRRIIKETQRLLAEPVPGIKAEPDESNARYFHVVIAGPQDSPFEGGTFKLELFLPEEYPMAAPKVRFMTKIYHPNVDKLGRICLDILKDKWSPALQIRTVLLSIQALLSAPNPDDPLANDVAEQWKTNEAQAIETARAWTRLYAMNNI

[12] = target: FAD-linked sulfhydryl oxidase ALR (Homo sapiens, UniProt P55789); assay: inhibitors of human ALR sulfhydryl oxidase, dose response, biochemical, H2O2 detection, luminescence, cherry-pick (AID 493248)
[13] = target: T4, Corticotropin-releasing factor receptor 2/Corticotropin-releasing factor-binding protein (Homo sapiens, UniProt P24387+Q13324); assay: activators of CRF receptor 2 with binding protein – uHTS hits, confirmation (AID 602473); assay type: functional; settings: read-out: EC50_Mean
T4 sequence (Q13324 whole entry): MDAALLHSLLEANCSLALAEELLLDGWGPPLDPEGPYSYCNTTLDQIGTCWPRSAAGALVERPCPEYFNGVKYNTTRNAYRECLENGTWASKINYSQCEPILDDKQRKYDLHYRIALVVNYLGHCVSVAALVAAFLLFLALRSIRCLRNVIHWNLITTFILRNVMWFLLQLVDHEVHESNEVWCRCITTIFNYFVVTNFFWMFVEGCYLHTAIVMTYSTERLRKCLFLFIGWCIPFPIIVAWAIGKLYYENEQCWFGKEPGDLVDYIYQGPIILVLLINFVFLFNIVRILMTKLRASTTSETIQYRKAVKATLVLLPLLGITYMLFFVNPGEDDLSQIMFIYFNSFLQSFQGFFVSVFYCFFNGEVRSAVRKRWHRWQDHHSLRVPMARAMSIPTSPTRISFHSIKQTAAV
T4 sequence (P24387 whole entry): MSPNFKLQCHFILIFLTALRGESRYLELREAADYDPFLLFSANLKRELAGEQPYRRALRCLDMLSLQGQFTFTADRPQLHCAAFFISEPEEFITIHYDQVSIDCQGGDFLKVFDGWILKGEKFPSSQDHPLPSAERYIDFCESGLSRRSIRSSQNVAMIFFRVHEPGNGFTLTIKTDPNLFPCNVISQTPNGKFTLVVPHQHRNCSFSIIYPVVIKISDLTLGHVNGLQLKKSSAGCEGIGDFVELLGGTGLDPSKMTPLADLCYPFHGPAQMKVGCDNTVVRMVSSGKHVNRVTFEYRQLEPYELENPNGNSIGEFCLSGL

[14] = target: T4, Corticotropin-releasing factor receptor 2/Corticotropin-releasing factor-binding protein; assay: Dose Response confirmation of uHTS hits for small molecule antagonists of the CRF-binding protein and CRF-R2 receptor complex.; assay type: functional; settings: read-out: IC50_Mean
Cytochrome P450 2D6 = Cytochrome P450 2D6 (Homo sapiens, UniProt P10635);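 note: CYP2D6 member of a cytochrome P450 panel assay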
Paired box protein Pax-8 = Paired box protein Pax-8 (Homo sapiens, UniProt Q06710); assay: inhibitors of PAX8-driven TPO luciferase reporter, dose response, RMG-I cells, cherry-pick (AID 687027); assay type: functional, cell-based;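 note: luciferase reporter driven by Pax8 target thyroperoxidase promoter measured by SteadyGlo luminescence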
[15] = target: Heat shock protein HSP 90-alpha (Homo sapiens, UniProt P07900); assay type: functional, organism-based

FAD-linked sulfhydryl oxidase ALR, sequence (P55789 whole entry): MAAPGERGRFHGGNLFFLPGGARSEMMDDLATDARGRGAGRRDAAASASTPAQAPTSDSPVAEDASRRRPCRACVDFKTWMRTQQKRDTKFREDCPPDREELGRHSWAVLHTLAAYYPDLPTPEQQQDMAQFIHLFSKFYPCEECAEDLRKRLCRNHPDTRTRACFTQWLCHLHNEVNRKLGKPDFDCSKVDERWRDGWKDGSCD
Luciferin 4-monooxygenase, sequence (P08659 whole entry): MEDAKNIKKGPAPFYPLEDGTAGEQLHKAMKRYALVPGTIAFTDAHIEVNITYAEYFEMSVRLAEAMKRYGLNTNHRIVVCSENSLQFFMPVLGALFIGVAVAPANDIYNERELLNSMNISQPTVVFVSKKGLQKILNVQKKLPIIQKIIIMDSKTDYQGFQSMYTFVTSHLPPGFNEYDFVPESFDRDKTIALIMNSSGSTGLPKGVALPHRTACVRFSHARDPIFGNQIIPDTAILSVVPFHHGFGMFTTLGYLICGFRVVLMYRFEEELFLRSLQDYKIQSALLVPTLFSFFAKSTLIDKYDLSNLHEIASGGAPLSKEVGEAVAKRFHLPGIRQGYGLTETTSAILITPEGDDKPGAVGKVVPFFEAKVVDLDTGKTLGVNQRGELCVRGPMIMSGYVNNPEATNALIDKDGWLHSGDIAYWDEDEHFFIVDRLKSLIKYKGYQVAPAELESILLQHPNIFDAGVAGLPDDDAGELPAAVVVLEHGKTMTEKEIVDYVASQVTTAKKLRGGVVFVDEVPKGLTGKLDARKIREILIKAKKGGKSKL
Paired box protein Pax-8, sequence (Q06710 whole entry): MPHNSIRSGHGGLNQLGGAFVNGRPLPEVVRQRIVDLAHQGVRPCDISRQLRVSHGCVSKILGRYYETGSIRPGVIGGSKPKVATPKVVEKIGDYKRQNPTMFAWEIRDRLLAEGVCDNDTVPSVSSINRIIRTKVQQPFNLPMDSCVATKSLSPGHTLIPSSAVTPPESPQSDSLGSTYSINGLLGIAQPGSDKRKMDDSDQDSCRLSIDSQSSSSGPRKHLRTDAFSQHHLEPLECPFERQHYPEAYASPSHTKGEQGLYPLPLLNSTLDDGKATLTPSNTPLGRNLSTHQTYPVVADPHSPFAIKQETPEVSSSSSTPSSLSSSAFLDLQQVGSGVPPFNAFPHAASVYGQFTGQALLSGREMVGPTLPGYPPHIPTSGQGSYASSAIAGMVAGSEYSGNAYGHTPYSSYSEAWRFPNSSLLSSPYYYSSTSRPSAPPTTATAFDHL
Cytochrome P450 2D6, sequence (P10635 whole entry): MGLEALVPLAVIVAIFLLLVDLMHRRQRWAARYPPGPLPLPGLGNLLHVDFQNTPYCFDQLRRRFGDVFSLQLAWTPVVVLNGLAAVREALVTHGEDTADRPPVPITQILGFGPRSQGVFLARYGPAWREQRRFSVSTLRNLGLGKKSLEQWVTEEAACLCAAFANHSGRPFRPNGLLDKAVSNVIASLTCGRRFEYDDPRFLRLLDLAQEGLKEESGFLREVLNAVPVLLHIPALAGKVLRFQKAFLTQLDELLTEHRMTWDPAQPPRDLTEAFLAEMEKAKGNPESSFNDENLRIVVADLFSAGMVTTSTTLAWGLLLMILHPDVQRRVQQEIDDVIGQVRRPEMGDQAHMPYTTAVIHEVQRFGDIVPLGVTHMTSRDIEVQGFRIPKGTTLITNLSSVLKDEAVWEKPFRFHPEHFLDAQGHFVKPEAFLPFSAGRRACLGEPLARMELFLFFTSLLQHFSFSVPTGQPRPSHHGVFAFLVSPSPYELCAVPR

COc1ccc(OC)c(Nc2nc(C3CC3)nc3c2nnn3Cc2ccccc2)c1
EC50 [1]: > 112 µM (not active)
EC50 [2]: > 112 µM (not active)

COCCOC(=O)c1[nH]c2c(c1C)C(=O)CC(c1ccccc1)C2 (stereo not given)
EC50 [3]: 2 µM (active)
EC50 (BJ [4]): 1.79 µM (active)
EC50 (BJ [5]): 4.01 µM (active)
EC50 [6]: 10.6 µM (active)
EC50 [7]: 8.73 µM (inconclusive)
EC50 (BJ [8]): 2.62 µM (inconclusive)
EC50 [9]: 4.34 µM (active)

COc1ccc(C2C(C(=O)Nc3cc(OC)c(OC)c(OC)c3)c3ccccc3C(=O)N2C)cc1 (stereo not given)
EC50 [3]: 2.62 µM (active)
EC50 (BJ [4]): 2.56 µM (inconclusive)
EC50 (BJ [5]): 104 µM (inconclusive)
EC50 (BJ [8]): 2.43 µM (inconclusive)

O=C(Cn1[nH]c(=O)c2ccccc2c1=O)OCC(=O)N1CCc2ccccc2C1
IC50 (H9c2): 28.5 µM (active)

Cc1ccc2sc(NNC(=O)c3ccc4c(c3)OCCO4)nc2c1C
EC50 (Streptococcus): 18.3 µM (active)
EC50 [10]: 13 µM (active)
IC50 (H9c2): 32.5 µM (inactive)
EC50 (Streptokinase A): > 150 µM (not active)

Cn1c(=O)[nH]c(=O)c2c1nc(N1CCCCCC1)n2CC(N)=O
EC50 [1]: > 112 µM (not active)
EC50 [2]: > 112 µM (not active)

Cc1cc(C)c(C)c(S(=O)(=O)N2CCN(C(=O)c3cc(O)nc4ccccc34)CC2)c1C
IC50 (H9c2): > 79 µM (inactive)

CC1CCCN(C(=O)c2ccncc2)C1 (stereo not given)
IC50 (Protein skinhead-1): > 100 µM (inactive)

Cc1ccc(S(=O)(=O)CCc2nnc(NC(=O)CCl)s2)cc1C
EC50 [3]: 10.5 µM (active)
EC50 (BJ [4]): > 150 µM (not active)
EC50 (BJ [5]): 14.7 µM (active)
EC50 (BJ [8]): 3.06 µM (active)

CCOC(=O)N1CCN(C(=O)Cc2ccc(-n3c(=S)[nH]c4ccccc4c3=O)cc2)CC1
IC50 [11]: > 20 µM (inactive)

COc1cccc(/C=N/Nc2ncnc3scc(-c4ccccc4)c23)c1OC
IC50 (H9c2): > 79 µM (inactive)

N#CCC(=O)Nc1ccc(C(=O)NCc2ccccn2)cc1
AC50 [12]: 2.41 µM (active)

CN(C)CCCSc1nc2ccccc2s1
AC50 [12]: 0.171 µM (active)

Fc1cc(Br)ccc1COc1ccc(-c2nnco2)cc1
IC50 (Protein skinhead-1): > 100 µM (inactive)

O=C(c1ccco1)N1CCN=C1SCc1ccccc1Cl
AC50 [12]: 0.41 µM (active)
EC50 [13]: > 53 µM (inactive)
IC50 [14]: > 47.1 µM (inactive)

CCC(C)N(C(=O)COC(=O)Cc1nnc(O)c2ccccc12)C1CCS(=O)(=O)C1 (stereo not given)
IC50 (H9c2): > 79 µM (inactive)

CC(C)C[C@@H]1CN=C(N)N1C[C@@H]1CCCN1C[C@H](C)N1C[C@@H](Cc2ccccc2)N(CCc2ccc(Cl)c(Cl)c2)C1=N
IC50 [11]: > 20 µM (inactive)

Cc1ccccc1NC(=O)CSC1=C(C#N)C(c2ccsc2)CC(=O)N1 (stereo not given)
IC50 (Protein skinhead-1): > 100 µM (inactive)

Cn1ncc(Cl)c1C(=O)N/N=C/c1ccccn1
IC50 (H9c2): 71.6 µM (inactive)

CCNc1nc(Cl)nc(NC(C)C)n1 [ATRAZINE]
EC50 [1]: > 112 µM (not active)
EC50 [2]: > 112 µM (not active)

Cc1ccc(S(=O)(=O)Nc2c(C(=O)O)[nH]c3ccccc23)c(C)c1
AC50 [12]: 12.7 µM (active)

COc1ccccc1C(=O)Nc1ccc2c(c1)CCCN2C(=O)c1ccccc1
EC50 [1]: 19.1 µM (active)
EC50 [2]: 0.712 µM (active)

CCCCn1nc(C(=O)Oc2ccc3c(C)cc(=O)oc3c2)c2ccccc2c1=O
IC50 (H9c2): > 79 µM (inactive)

Cn1c(=O)c2c(nc(Br)n2Cc2ccc3ccccc3c2)n(C)c1=O
IC50 (H9c2): 13.7 µM (active)

CCN1CCN(C(=O)c2cc(-c3ccco3)nc3ccccc23)CC1
IC50 [11]: > 20 µM (inactive)

CCc1cccc(NC(=O)CSC2=NS(=O)(=O)c3ccccc32)c1
IC50 [11]: > 20 µM (inactive)

COc1cccc2cc(C(C)N(CCCN3CCOCC3)C(=O)Nc3ccccc3)oc12 (stereo not given)
EC50 [1]: > 112 µM (not active)
EC50 [2]: > 112 µM (not active)

CCc1ccc(N2CC(C(=O)OCC(=O)c3c(N)n(CC(C)C)c(=O)n(C)c3=O)CC2=O)cc1 (stereo not given)
EC50 [1]: > 112 µM (not active)
EC50 [2]: > 112 µM (not active)

CC(=O)Nc1cc(-c2cccc(NS(C)(=O)=O)c2)cn2c(-c3cccc(C(C)=O)c3)cnc12
IC50 (H9c2): 12.8 µM (active)

CCCc1nc2ccccc2c(=O)n1-c1ccc(OC)cc1
IC50 (Protein skinhead-1): > 100 µM (inactive)
AC50 (Cytochrome P450 2D6): 14.1 µM (inconclusive)

Clc1ccc(-c2nnc(-c3cccnc3)o2)cc1
IC50 (Protein skinhead-1): 30.1 µM (active)

Brc1ccc(-c2cn3cccnc3n2)cc1
IC50 (Protein skinhead-1): > 100 µM (inactive)

CCOc1nc(-c2ccncc2)nc2ccccc12
IC50 (Protein skinhead-1): > 100 µM (inactive)

CS(=O)(=O)N1CCC(Oc2ccccc2C(=O)N2CCN(CC3CC3)CC2)CC1
EC50 [1]: > 112 µM (not active)
EC50 [2]: > 112 µM (not active)

CC1CCCC(NC(=O)CSc2ncnc3ccccc23)C1C (stereo not given)
IC50 [11]: > 20 µM (inactive)

Cn1cc(S(=O)(=O)N2CCOCC2)cc1C(=O)NCCc1ccccc1
EC50 [1]: > 112 µM (not active)
EC50 [2]: > 112 µM (not active)

C[C@@H]1CCCCO[C@@H](CN(C)Cc2ccc(Cl)c(Cl)c2)[C@H](C)CN([C@@H](C)CO)C(=O)c2cc(NC(=O)Cc3ccccc3)ccc2O1
AC50 (Paired box protein Pax-8): 4.54 µM (active)

CC1=CC(C)CC(C)OC(=O)CC(c2ccc(O)cc2)NC(=O)C(Cc2c(Br)[nH]c3ccccc23)N(C)C(=O)C(C)NC(=O)C(C)C1 (stereo not given)
AC50 (Paired box protein Pax-8): < 0.26 µM (active)
AC50 [15]: 4.09 µM (active)
